{
  "source": "patent US9034791B2",
  "about": "“Method for controlling noxious organisms” (Sumitomo Chemical Company, Limited, priority 2012, dated 2015)",
  "format_in_all_cases": "in vivo",
  "conditions_in_all_cases": "day 7 after sowing, scale 0 to 100",
  "key": {"Ivyleaf morningglory [1]": {"system": "Ivyleaf morningglory", "assay": "Pot test, herbicidal effect with fludioxonil-treated corn seeds and soil-applied PPO inhibitor", "experimental": "(§1) The evaluation of the herbicidal effect is classified into 0 to 100, in which the numeral “0” indicates no or little difference in the state of germination or growth of test weeds as compared with the untreated weeds at the time of the investigation, and the numeral “100” indicates the complete death of the test plants or the complete suppression of their germination or growth.\n(§2) In a plastic cup of 100 mm in inside diameter and 40 mm in height, 19.8 mg of a fludioxonil suspension (a suspension containing 20% of fludioxonil, trade name: Savior flowable, manufactured by Syngenta Japan K. K.) and 40 corn seeds were placed. The plastic cup was shaken by the hand so that the fludioxonil suspension was attached to the corn seeds. The weight of 40 corn seeds was 13.2 g, and the amount of fludioxonil by the above treatment was calculated as 30 g per 100 kg of the corn seeds.\nIn the same manner, 193.5 mg of the fludioxonil suspension was attached to 40 corn seeds. The weight of 40 corn seeds was 12.9 g, and the amount of fludioxonil by the above treatment was calculated as 300 g per 100 kg of the corn seeds.\n(§3) A soil was packed in a plastic pot of 120 mm in inside diameter×80 mm in height. The above treated corn seeds were sown in this pot at a rate of two seeds per pot, and the seeds of ivyleaf morningglory were sown at a rate of four seeds per pot. On the day of sowing the corn seeds and after sowing the corn seeds, an aqueous diluted solution (113 mg of active ingredient/L or 225 mg of active ingredient/L) of a flumioxazin granular wettable powder (a granular wettable powder containing 51% of flumioxazin, trade name: Valor SX, manufactured by Valent USA), an aqueous diluted solution (226 mg of active ingredient/L or 1130 mg of active ingredient/L) of a sulfentrazone granular wettable powder (a granular wettable powder containing 75% of sulfentrazone, trade name: Cover, manufactured by DuPont), or an aqueous diluted solution (113 mg/L or 226 mg/L) of saflufenacil was uniformly sprayed on the soil surface with a sprayer so as to apply the amount described in Tables 4 to 6. The aqueous diluted solution of saflufenacil was prepared by dissolving a predetermined amount of saflufenacil in acetone containing 2% (w/v) of Tween 20, and diluting this solution with water so as to have an acetone concentration of 10% by volume.\nOn day 7 after sowing the seeds of corn and ivyleaf morningglory, the herbicidal effect was investigated."}, "Ivyleaf morningglory [2]": {"system": "Ivyleaf morningglory", "assay": "Pot test, herbicidal effect with fludioxonil-treated soybean seeds and soil-applied PPO inhibitor", "experimental": "as §1\nas §2, with “14.25” for “19.8”, “soybean” for “corn”, “9.55” for “13.2”\nIn the same manner, 151.4 mg of the fludioxonil suspension was attached to 40 soybean seeds. The weight of 40 soybean seeds was 10.1 g, and the amount of fludioxonil by the above treatment was calculated as 300 g per 100 kg of the soybean seeds.\nas §3, with “soybean” for “corn”, “1” for “4”, “3.” for “6.”\nOn day 7 after sowing the seeds of soybean and ivyleaf morningglory, the herbicidal effect was investigated."}, "Ivyleaf morningglory [3]": {"system": "Ivyleaf morningglory", "assay": "Pot test, herbicidal effect with fludioxonil-treated cotton seeds and soil-applied PPO inhibitor", "experimental": "as §1\nIn a plastic cup of 100 mm in inside diameter and 40 mm in height, 8.55 mg of a fludioxonil suspension (a suspension containing 20% of fludioxonil, trade name: Savior flowable, manufactured by Syngenta Japan K. K.) and 40 cotton seeds were placed. The plastic cup was shaken by the hand so that the fludioxonil suspension was attached to the cotton seeds. The weight of 40 cottonseeds was 5.7 g, and the amount of fludioxonil by the above treatment was calculated as 30 g per 100 kg of the cotton seeds.\nIn the same manner, 84.8 mg of the fludioxonil suspension was attached to 40 cotton seeds. The weight of 40 cotton seeds was 5.65 g, and the amount of fludioxonil by the above treatment was calculated as 300 g per 100 kg of the cotton seeds.\nas §3, with “cotton” for “treated corn”, “cotton” for “corn”, “7” for “4”, “9.” for “6.”\nOn day 7 after sowing the seeds of cotton and ivyleaf morningglory, the herbicidal effect was investigated."}, "[4]": {"conditions": "fludioxonil 30 g/100 kg of seeds, PPO inhibitor None"}, "[5]": {"conditions": "fludioxonil 300 g/100 kg of seeds, PPO inhibitor None"}, "[6]": {"conditions": "fludioxonil None, PPO inhibitor 100 g/ha soil surface"}, "[7]": {"conditions": "fludioxonil None, PPO inhibitor 500 g/ha soil surface"}, "[8]": {"conditions": "fludioxonil None, PPO inhibitor 50 g/ha soil surface"}},
  "data": [
    {"smiles": "N#Cc1c[nH]cc1-c1cccc2c1OC(F)(F)O2", "note": "[fludioxonil]", "values": [
      {"measurement": "Herbicidal effect Ivyleaf morningglory", "setting": "Ivyleaf morningglory [1]; [4]", "value": 0},
      {"measurement": "Herbicidal effect Ivyleaf morningglory", "setting": "Ivyleaf morningglory [1]; [5]", "value": 0},
      {"measurement": "Herbicidal effect Ivyleaf morningglory", "setting": "Ivyleaf morningglory [2]; [4]", "value": 0},
      {"measurement": "Herbicidal effect Ivyleaf morningglory", "setting": "Ivyleaf morningglory [2]; [5]", "value": 0},
      {"measurement": "Herbicidal effect Ivyleaf morningglory", "setting": "Ivyleaf morningglory [3]; [4]", "value": 0},
      {"measurement": "Herbicidal effect Ivyleaf morningglory", "setting": "Ivyleaf morningglory [3]; [5]", "value": 0}
    ]},
    {"smiles": "Cc1nn(-c2cc(NS(C)(=O)=O)c(Cl)cc2Cl)c(=O)n1C(F)F", "note": "[sulfentrazone]", "values": [
      {"measurement": "Herbicidal effect Ivyleaf morningglory", "setting": "Ivyleaf morningglory [1]; [6]", "value": 40},
      {"measurement": "Herbicidal effect Ivyleaf morningglory", "setting": "Ivyleaf morningglory [2]; [6]", "value": 20},
      {"measurement": "Herbicidal effect Ivyleaf morningglory", "setting": "Ivyleaf morningglory [2]; [7]", "value": 60},
      {"measurement": "Herbicidal effect Ivyleaf morningglory", "setting": "Ivyleaf morningglory [3]; [7]", "value": 30}
    ]},
    {"smiles": "C#CCN1C(=O)COc2cc(F)c(N3C(=O)C4=C(CCCC4)C3=O)cc21", "note": "[flumioxazin]", "values": [
      {"measurement": "Herbicidal effect Ivyleaf morningglory", "setting": "Ivyleaf morningglory [1]; [8]", "value": 20},
      {"measurement": "Herbicidal effect Ivyleaf morningglory", "setting": "Ivyleaf morningglory [1]; [6]", "value": 50},
      {"measurement": "Herbicidal effect Ivyleaf morningglory", "setting": "Ivyleaf morningglory [2]; [6]", "value": 20},
      {"measurement": "Herbicidal effect Ivyleaf morningglory", "setting": "Ivyleaf morningglory [3]; [6]", "value": 30}
    ]},
    {"smiles": "CC(C)N(C)S(=O)(=O)NC(=O)c1cc(-n2c(=O)cc(C(F)(F)F)n(C)c2=O)c(F)cc1Cl", "note": "[saflufenacil]", "values": [
      {"measurement": "Herbicidal effect Ivyleaf morningglory", "setting": "Ivyleaf morningglory [1]; [6]", "value": 30},
      {"measurement": "Herbicidal effect Ivyleaf morningglory", "setting": "Ivyleaf morningglory [2]; [6]", "value": 40},
      {"measurement": "Herbicidal effect Ivyleaf morningglory", "setting": "Ivyleaf morningglory [3]; [8]", "value": 30},
      {"measurement": "Herbicidal effect Ivyleaf morningglory", "setting": "Ivyleaf morningglory [3]; [6]", "value": 40}
    ]}
  ]
}
